In US10426775B2, “Methods for treating Friedreich's ataxia with etravirine” (Fratagene Therapeutics srl, priority 2017, dated 2019):
Residues, ends and D or L forms follow the SMILES beside them. *: point of attachment. Cbz = O=C(OCc1ccccc1)*

Assays:
[1] = tested on: newly synthesized frataxin mRNA; assay: Nascent frataxin transcripts (EU metabolic labeling, Click-iT capture, real-time PCR) in HEK293-fxn; type: cell-based, human; details: 10 μM, 4 or 8 hours
Source text: We then investigated whether the observed increase in frataxin protein levels is due to an upregulation of the frataxin mRNA, either promoted by an increase in the […] rate of frataxin mRNA or by its stabilization. To understand whether etravirine promotes de novo synthesis of frataxin mRNA, we metabolically labeled nascent transcripts through the incorporation of 5-ethynyl uridine (EU). Through a click chemistry-based reaction, biotin was then conjugated to EU-labelled transcripts, thus allowing selective isolation and analysis of newly synthesized mRNA. We therefore quantitatively analyzed the relative amount of newly synthesized frataxin mRNA in etravirine-treated HEK293-fxn cells, compared to untreated control cells. […] We then analyzed the effect of etravirine on the decay of frataxin transcript observed upon treatment with actinomycin. HEK293-fxn cells were treated with actinomycin for 4, 8 or 12 hours in the presence or absence of etravirine and frataxin mRNA was quantitated by RT-PCR.
HEK 293-fxn stably expressing frataxin (A), HEK 293 (B), or FRDA lymphoblast cell line GM16203 (C) were treated with 10 μM etravirine for the indicated time points. Protein extracts were resolved on SDS-PAGE and analyzed by western blot with anti-frataxin antibody and anti-tubulin as a loading control. Etr: etravirine; tub: tubulin; fxn pre: frataxin precursor. […]

frataxin-ProLabel fusion = assay: frataxin-ProLabel cell-based reporter assay (β-galactosidase enzyme fragment complementation), library screening; design: species or system human; details: frataxin-ProLabel transfected cells treated with MG132
Protocol: The FDA-approved drug library (SELLECKCHEM SCREENING LIBRARIES®) that was used in the screening was composed of 853 drugs. The library was provided in a total of ten 96-well plate, with the drugs at a stock concentration of 10 mM in dimethyl sulfoxide (DMSO). To evaluate the effect of drugs on frataxin abundance, we generated a fusion construct between frataxin and ProLabel that was used as a reporter in a cell-based assay. The system is based on […] enzyme fragment complementation (Eglen, 2002). […] Indeed, treatment of frataxin-ProLabel transfected cells with MG132 promotes frataxin accumulation, which results in a 5-fold increase in the intensity of the luminescence signal. […]
For the screening, HEK-293 cells were transiently transfected with pCMV-fxn-ProLabel. […] After 24 hours, the complementary β-galactosidase subunit and the substrate were added and chemiluminescence emission was measured by luminometer reading. […] The chemiluminescent signal was monitored over a period of 210 minutes. […]
To analyse the FDA-approved drug screening results, an arbitrary threshold was established for each plate as the average of the luminescence measured in all the wells of the plate plus 2 standard deviations. Luminescence signal from each well was then normalized on threshold value. […]

Row | Structure (SMILES) | relative amount of newly synthesized frataxin mRNA vs untreated control cells [1] | increase in the intensity of the luminescence signal (frataxin-ProLabel fusion) [fold]
1 | O=C(CCCCCCC(=O)Nc1ccccc1)NO [Vorinostat] | significantly upregulates | 
2 | CC(C)C[C@@H](C=O)NC(=O)[C@H](CC(C)C)NC(=O)[C@H](CC(C)C)NC(=O)OCc1ccccc1 [MG132] (Cbz-Leu-Leu-Leu-aldehyde) |  | 5
